Test results reported in patent US8754226B2, “Piperidinyl-substituted lactams as GPR119 modulators” (Array BioPharma Inc., priority 2010, dated 2014).

Test system: modified version of the GPR119 receptor (94% identity to human receptor)
Assay: cAMP production assay (LANCE cAMP kit, TR-FRET) in HEK-293 cells
Type: cell-based
Details: for cAMP production in HEK-293 cells: HEK-293 cells stably expressing modified GPR119, test compounds 0.2 nM to 10 μM, one-hour incubation at ambient temperature; for Fold over baseline: increase in cAMP relative to basal levels, agonist activity if 1.5-fold or greater
How it was run: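 Doxycycline-induced (1 μg/mL, overnight) HEK-293 cells expressing modified GPR119 were thawed, 2000 cells/well, and exposed to compounds (0.2 nM-10 μM final, 0.5% DMSO) for 1 h at ambient temperature in HBSS/HEPES/BSA. cAMP was measured by LANCE TR-FRET against a standard curve. Agonism was defined as ≥1.5-fold over basal.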

Compound: CCc1cnc(N2CCC(N3CCCC(Nc4ccc(S(C)(=O)=O)c(F)c4)C3=O)CC2)nc1 (centres unmarked) [Example 63, 1′-(5-ethylpyrimidin-2-yl)-3-(3-fluoro-4-(methylsulfonyl)phenylamino)-[1,4′-bipiperidin]-2-one]
- cAMP production in HEK-293 cells: 16.2 nmol
- Fold over baseline: 3.4

Compound: O=C1[C@@H](Nc2ncc(C(F)(F)F)cc2Cl)CCCN1C1CCN(c2cnc(Cl)cn2)CC1 [Example 75, (S)-3-(3-chloro-5-(trifluoromethyl)pyridin-2-ylamino)-1′-(5-chloropyrazin-2-yl)-[1,4′-bipiperidin]-2-one]
- cAMP production in HEK-293 cells: 9.1 nmol
- Fold over baseline: 2.5

Compound: CCc1cnc(N2CCC(N3CCC[C@H](Nc4cc(Cl)c(S(C)(=O)=O)cc4F)C3=O)CC2)nc1 [Example 48, (S)-3-(5-chloro-2-fluoro-4-(methyl-sulfonyl)phenylamino)-1′-(5-ethylpyrimidin-2-yl)-[1,4′-bipiperidin]-2-one]
- cAMP production in HEK-293 cells: 16.9 nmol
- Fold over baseline: 3.0

Compound: CCc1cnc(N2CCC(N3CC[C@H](Oc4cc(C)c(S(C)(=O)=O)cc4F)C3=O)CC2)nc1 [Example 96, (S)-1-(1-(5-ethylpyrimidin-2-yl)piperidin-4-yl)-3-(2-fluoro-5-methyl-4-(methylsulfonyl)phenoxy)pyrrolidin-2-one]
- cAMP production in HEK-293 cells: 31.7 nmol
- Fold over baseline: 3.5

Compound: Cc1cc(N[C@H]2CCN(C3CCN(c4ncc(Cl)cc4F)CC3)C2=O)cnc1S(C)(=O)=O [Example 120, (S)-1-(1-(5-chloro-3-fluoropyridin-2-yl)piperidin-4-yl)-3-(5-methyl-6-(methylsulfonyl)pyridin-3-ylamino) pyrrolidin-2-one]
- cAMP production in HEK-293 cells: 18.6 nmol
- Fold over baseline: 3.8

Compound: CCCCCCCCCCc1cnc(N2CCC(N3CCC[C@H](Nc4cc(F)c(S(C)(=O)=O)cc4F)C3=O)CC2)nc1 [Example 46, (S)-1′-(5-decylpyrimidin-2-yl)-3-(2,5-difluoro-4-(methylsulfonyl)phenylamino)-[1,4′-bipiperidin]-2-one]
- cAMP production in HEK-293 cells: 10.7 nmol
- Fold over baseline: 2.2

Compound: CCc1cnc(N2CCC(N3CC[C@H](Nc4cc(C)c(S(C)(=O)=O)cc4F)C3=O)CC2)nc1 [Example 35, (S)-1-(1-(5-ethylpyrimidin-2-yl)piperidin-4-yl)-3-(2-fluoro-5-methyl-4-(methylsulfonyl)phenylamino)pyrrolidin-2-one]
- cAMP production in HEK-293 cells: 14.5 nmol
- Fold over baseline: 4.1

Compound: CCc1cnc(N2CCC(N3CC[C@H](Nc4cc5c(cc4Cl)C(=O)CCO5)C3=O)CC2)nc1 [Example 36]
- cAMP production in HEK-293 cells: 17.4 nmol
- Fold over baseline: 3.2

Compound: CS(=O)(=O)c1ccc(N[C@H]2CCN(C3CCN(c4ncc(Cl)nc4Cl)CC3)C2=O)cn1 [Example 161, (S)-1-(1-(3,5-dichloropyrazin-2-yl)piperidin-4-yl)-3-(6-(methylsulfonyl)pyridin-3-ylamino)pyrrolidin-2-one]
- cAMP production in HEK-293 cells: 13.8 nmol
- Fold over baseline: 3.6

Compound: CS(=O)(=O)c1ccc(N[C@H]2CCN(C3CCN(c4ccc(C(F)(F)F)cn4)CC3)C2=O)c(F)c1 [Example 103, (S)-3-(2-fluoro-4-(methyl-sulfonyl)phenylamino)-1-(1-(5-(trifluoromethyl)pyridin-2-yl)piperidin-4-yl)pyrrolidin-2-one]
- cAMP production in HEK-293 cells: 15.4 nmol
- Fold over baseline: 2.7

Compound: O=C(c1ccc(O[C@H]2CCN(C3CCN(c4ncc(Cl)cc4F)CC3)C2=O)cn1)N1CCCC1 [Example 148, (S)-1-(1-(5-chloro-3-fluoropyridin-2-yl)piperidin-4-yl)-3-(6-(pyrrolidine-1-carbonyl)pyridin-3-yloxy)pyrrolidin-2-one]
- cAMP production in HEK-293 cells: 14.4 nmol
- Fold over baseline: 2.4

Compound: Cc1cc(S(C)(=O)=O)ncc1N[C@H]1CCN(C2CCN(c3ncc(Cl)cc3C#N)CC2)C1=O [Example 122, (S)-5-chloro-2-(4-(3-(4-methyl-6-(methylsulfonyl)pyridin-3-ylamino)-2-oxopyrrolidin-1-yl)piperidin-1-yl) icotinonitrile]
- cAMP production in HEK-293 cells: 6.5 nmol
- Fold over baseline: 1.5

Compound: CCc1cnc(N2CCC(N3CCCC(Nc4ccc(S(C)(=O)=O)cc4F)C3=O)CC2)nc1 (centres unmarked) [Example 62, 1′-(5-ethylpyrimidin-2-yl)-3-(2-fluoro-4-(methylsulfonyl)phenylamino)-[1,4′-bipiperidin]-2-one]
- cAMP production in HEK-293 cells: 9.8 nmol
- Fold over baseline: 2.9

Compound: Cn1cc(-c2cnc(N3CCC(N4CC[C@H](Nc5ccc(S(C)(=O)=O)cc5F)C4=O)CC3)nc2)cn1 [Example 33, (S)-3-(2-fluoro-4-(methylsulfonyl)phenylamino)-1-(1-(5-(1-methyl-1H-pyrazol-4-yl)pyrimidin-2-yl)piperidin-4-yl)pyrrolidin-2-one]
- cAMP production in HEK-293 cells: 15.9 nmol
- Fold over baseline: 3.3

Compound: CCc1cnc(N2CCC(N3CCCC(Oc4cc(F)c(S(C)(=O)=O)cc4F)C3=O)CC2)nc1 (centres unmarked) [Example 26, 3-(2,5-difluoro-4-(methylsulfonyl)phenoxy)-1′-(5-ethylpyrimidin-2-yl)-1,4′-bipiperidin-2-one]
- cAMP production in HEK-293 cells: 19.1 nmol
- Fold over baseline: 4.2

Compound: CS(=O)(=O)c1cc(F)c(N[C@H]2CCN(C3CCN(c4ncc(C(F)(F)F)cc4Cl)CC3)C2=O)cc1F [Example 111, (S)-1-(1-(3-chloro-5-(trifluoromethyl)pyridin-2-yl)piperidin-4-yl)-3-(2,5-difluoro-4-(methylsulfonyl)phenyl-amino)pyrrolidin-2-one]
- cAMP production in HEK-293 cells: 37.9 nmol
- Fold over baseline: 3.0

Compound: Cc1ccccc1-c1cnc(N2CCC(N3CC[C@H](Oc4cc(F)c(S(C)(=O)=O)cc4F)C3=O)CC2)nc1 [Example 93, (S)-3-(2,5-difluoro-4-(methylsulfonyl)phenoxy)-1-(1-(5-o-tolylpyrimidin-2-yl)piperidin-4-yl)pyrrolidin-2-one]
- cAMP production in HEK-293 cells: 11.1 nmol
- Fold over baseline: 2.2

Compound: CCc1cnc(N2CCC(N3CCC[C@H](Nc4cc(F)c(S(C)(=O)=O)cc4F)C3=O)CC2)cn1 [Example 59, (S)-3-(2,5-difluoro-4-(methylsulfonyl)phenylamino)-1′-(5-ethylpyrazin-2-yl)-[1,4′-bipiperidin]-2-one]
- cAMP production in HEK-293 cells: 22.6 nmol
- Fold over baseline: 3.4

Compound: CCc1cnc(N2CCC(N3CC[C@H](Oc4cc(C)c(Br)cc4F)C3=O)CC2)nc1 [Example 97, (S)-3-(4-bromo-2-fluoro-5-methylphenoxy)-1-(1-(5-ethylpyrimidin-2-yl)piperidin-4-yl)pyrrolidin-2-one]
- cAMP production in HEK-293 cells: 15.3 nmol
- Fold over baseline: 2.2

Compound: O=C(c1ccc(O[C@H]2CCN(C3CCN(c4ncc(Cl)cc4F)CC3)C2=O)c(F)c1)N1CC[C@H](O)C1 [Example 153, (S)-1-(1-(5-chloro-3-fluoropyridin-2-yl)piperidin-4-yl)-3-(2-fluoro-4-((S)-3-hydroxypyrrolidine-1-carbonyl)phenoxy)pyrrolidin-2-one]
- cAMP production in HEK-293 cells: 14.3 nmol
- Fold over baseline: 3.1

Compound: CN(C)C(=O)c1cnc(N2CCC(N3CC[C@H](Nc4ccc(S(C)(=O)=O)cc4F)C3=O)CC2)c(Cl)c1 [Example 157, (S)-5-chloro-6-(4-(3-(2-fluoro-4-(methylsulfonyl)phenylamino)-2-oxopyrrolidin-1-yl)piperidin-1-yl)-N,N-dimethylnicotinamide]
- cAMP production in HEK-293 cells: 8.3 nmol
- Fold over baseline: 3.1

Compound: CS(=O)(=O)c1ccc(NC2CCN(C3CCN(c4ccc(-c5ccccc5)cn4)CC3)C2=O)c(F)c1 (centres unmarked) [Example 25, 3-(2-fluoro-4-(methylsulfonyl)phenylamino)-1-(1-(5-phenylpyridin-2-yl)piperidin-4-yl)pyrrolidin-2-one]
- cAMP production in HEK-293 cells: 11.6 nmol
- Fold over baseline: 2.9

Compound: CC(C)c1cnc(N2CCC(N3CCC(Oc4cc(F)c(S(C)(=O)=O)cc4F)C3=O)CC2)nc1 (centres unmarked) [Example 86, 3-(2,5-difluoro-4-(methylsulfonyl)phenoxy)-1-(1-(5-isopropylpyrimidin-2-yl)piperidin-4-yl)pyrrolidin-2-one]
- cAMP production in HEK-293 cells: 5.9 nmol
- Fold over baseline: 1.9

Compound: CS(=O)(=O)c1cc(F)c(N[C@H]2CCCN(C3CCN(c4ncc(Cl)cn4)CC3)C2=O)cc1F [Example 50, (S)-1′-(5-chloropyrimidin-2-yl)-3-(2,5-difluoro-4-(methylsulfonyl)phenylamino)-[1,4′-bipiperidin]-2-one]
- cAMP production in HEK-293 cells: 11.4 nmol
- Fold over baseline: 2.3

Compound: CCc1cnc(N2CCC(N3CC[C@H](Oc4ccc(-n5nnnc5C)cc4)C3=O)CC2)nc1 [Example 70, (S)-1-(1-(5-ethylpyrimidin-2-yl)piperidin-4-yl)-3-(4-(5-methyl-1H-tetrazol-1-yl)phenoxy)pyrrolidin-2-one]
- cAMP production in HEK-293 cells: 6.1 nmol
- Fold over baseline: 1.8

Compound: CS(=O)(=O)c1ccc(N[C@H]2CCN(C3CCN(c4ncc(-c5cn[nH]c5)cn4)CC3)C2=O)c(F)c1 [Example 31, (S)-1-(1-(5-(1H-pyrazol-4-yl)pyrimidin-2-yl)piperidin-4-yl)-3-(2-fluoro-4-(methylsulfonyl)phenylamino)pyrrolidin-2-one]
- cAMP production in HEK-293 cells: 14.5 nmol
- Fold over baseline: 2.9

Compound: CS(=O)(=O)c1ccc(N[C@H]2CCN(C3CCN(c4nccnc4C#N)CC3)C2=O)c(F)c1 [Example 132, (S)-3-(4-(3-(2-fluoro-4-(methylsulfonyl)phenyl-amino)-2-oxopyrrolidin-1-yl)piperidin-1-yl)pyrazine-2-carbonitrile]
- cAMP production in HEK-293 cells: 9.1 nmol
- Fold over baseline: 1.5

Compound: CS(=O)(=O)c1cc(F)c(N[C@H]2CCCN(C3CCN(c4ncc(I)cn4)CC3)C2=O)cc1F [Example 47, (S)-3-(2,5-difluoro-4-(methylsulfonyl)phen-ylamino)-1′-(5-iodopyrimidin-2-yl)-[1,4′-bipiperidin]-2-one]
- cAMP production in HEK-293 cells: 9.3 nmol
- Fold over baseline: 2.0
